From US10428083B2, “Heterocyclylmethyl-thienouracile as antagonists of the adenosine-A2B-receptor” (BAYER PHARMA AKTIENGESELLSCHAFT, priority 2015, dated 2019)

Target: human adenosine A2b receptor (Homo sapiens (Human), UniProt P29275)
Assay: Cellular in vitro reporter gene test for A2b receptor activity (CHO-K1, CRE-luciferase, NECA stimulation)
Type: cell-based
Conditions: recombinant CHO-K1 cell line, CRE-luciferase reporter, antagonism of EC50 concentration of NECA; in some cases means of several determinations, rounded to two significant figures; read-out: A2b receptor IC50
Summary of the method: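 CHO-K1 cells with CRE-driven luciferase; antagonists co-incubated with NECA at its EC50, determined in a pre-experiment on each test day. Luciferase read by luminescence 3 h after NECA addition.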

human adenosine A2b receptor, sequence (P29275 whole entry): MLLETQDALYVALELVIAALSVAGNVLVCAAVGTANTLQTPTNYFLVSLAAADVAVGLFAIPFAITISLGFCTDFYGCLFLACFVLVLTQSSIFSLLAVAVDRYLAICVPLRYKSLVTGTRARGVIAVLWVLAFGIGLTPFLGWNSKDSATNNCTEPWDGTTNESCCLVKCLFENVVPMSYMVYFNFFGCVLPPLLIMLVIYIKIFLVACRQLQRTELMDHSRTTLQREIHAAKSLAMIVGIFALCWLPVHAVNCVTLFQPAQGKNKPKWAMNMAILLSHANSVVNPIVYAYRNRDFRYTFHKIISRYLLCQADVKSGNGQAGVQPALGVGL

| SMILES | IC50 |
| --- | --- |
| Cc1c(CN2CCNC2=S)sc2c1c(=O)n(CC(C)(C)C)c(=O)n2CCC(F)(F)F [Example 149, 3-(2,2-Dimethylpropyl)-5-methyl-6-[(2-thioxoimidazolidin-1-yl)methyl]-1-(3,3,3-trifluoropropyl)thieno[2,3-d]pyrimidine-2,4(1H,3H)-dione] | 5.1 nM |
| Cc1c(CN2CCNC2=S)sc2c1c(=O)n(CC(C)(C)C)c(=O)n2CCCF [Example 150, 3-(2,2-Dimethylpropyl)-1-(3-fluoropropyl)-5-methyl-6-[(2-thioxoimidazolidin-1-yl)methyl]thieno[2,3-d]pyrimidine-2,4(1H,3H)-dione] | 6 nM |
| COCCn1c(=O)n(CC(C)(C)C)c(=O)c2c(C)c(CN3CCNC3=S)sc21 [Example 151, 3-(2,2-Dimethylpropyl)-1-(2-methoxyethyl)-5-methyl-6-[(2-thioxoimidazolidin-1-yl)methyl]thieno[2,3-d]pyrimidine-2,4(1H,3H)-dione] | 5.7 nM |
| Cc1c(CN2CCNC2=S)sc2c1c(=O)n(CC(F)(F)F)c(=O)n2CCC(F)(F)F [Example 152, 5-Methyl-6-[(2-thioxoimidazolidin-1-yl)methyl]-3-(2,2,2-trifluoroethyl)-1-(3,3,3-trifluoropropyl)thieno[2,3-d]pyrimidine-2,4(1H,3H)-dione] | 0.79 nM |
| CCOCCn1c(=O)n(CC(F)(F)F)c(=O)c2c(C)c(CN3CCNC3=S)sc21 [Example 153, 1-(2-Ethoxyethyl)-5-methyl-6-[(2-thioxoimidazolidin-1-yl)methyl]-3-(2,2,2-trifluoroethyl)thieno[2,3-d]pyrimidine-2,4(1H,3H)-dione] | 6.4 nM |
| Cc1c(CN2CCNC2=S)sc2c1c(=O)n(CC(F)(F)F)c(=O)n2CC1COC1 [Example 158, 5-Methyl-1-(oxetan-3-ylmethyl)-6-[(2-thioxoimidazolidin-1-yl)methyl]-3-(2,2,2-trifluoroethyl)thieno[2,3-d]pyrimidine-2,4(1H,3H)-dione] | 5.5 nM |
| Cc1c(CN2CCNC2=S)sc2c1c(=O)n(CC(F)(F)F)c(=O)n2C [Example 159, 1,5-Dimethyl-6-[(2-thioxoimidazolidin-1-yl)methyl]-3-(2,22-trifluoroethyl)thieno[2,3-d]pyrimidine-2,4(1H,3H)-dione] | 14 nM |
| Cc1c(CN2CCNC2=S)sc2c1c(=O)n(CC(F)F)c(=O)n2CCC(F)(F)F [Example 160, 3-(2,2-Difluoroethyl)-5-methyl-6-[(2-thioxoimidazolidin-1-yl)methyl]-1-(3,3,3-trifluoropropyl)thieno[2,3-d]pyrimidine-2,4(1H,3H)-dione] | 2.9 nM |
| CCOCCn1c(=O)n(CC(F)F)c(=O)c2c(C)c(CN3CCNC3=S)sc21 [Example 161, 3-(2,2-Difluoroethyl)-1-(2-ethoxyethyl)-5-methyl-6-[(2-thioxoimidazolidin-1-yl)methyl]thieno[2,3-d]pyrimidine-2,4(1H,3H)-dione] | 8.5 nM |
| Cc1c(CN2CCNC2=S)sc2c1c(=O)n(CC(F)F)c(=O)n2CC1COC1 [Example 165, 3-(2,2-Difluoroethyl)-5-methyl-1-(oxetan-3-ylmethyl)-6-[(2-thioxoimidazolidin-1-yl)methyl]thieno[2,3-d]pyrimidine-2,4(1H,3H)-dione] | 6.5 nM |
| Cc1c(CN2CCNC2=S)sc2c1c(=O)n(CC(F)F)c(=O)n2C [Example 166, 3-(2,2-Difluoroethyl)-1,5-dimethyl-6-[(2-thioxoimidazolidin-1-yl)methyl]thieno[2,3-d]pyrimidine-2,4(1H,3H)-dione] | 13 nM |
| COCCn1c(=O)c2c(C)c(CN3CCNC3=S)sc2n(CCC(F)(F)F)c1=O [Example 167, 3-(2-Methoxyethyl)-5-methyl-6-[(2-thioxoimidazolidin-1-yl)methyl]-1-(3,3,3-trifluoropropyl)thieno[2,3-d]pyrimidine-2,4(1H,3H)-dione] | 1.2 nM |
| COCCn1c(=O)c2c(C)c(CN3CCNC3=S)sc2n(CCOC)c1=O [Example 168, 1,3-Bis(2-methoxyethyl)-5-methyl-6-[(2-thioxoimidazolidin-1-yl)methyl]thieno[2,3-d]pyrimidine-2,4(1H,3H)-dione] | 15 nM |
| CCOCCn1c(=O)n(CCOC)c(=O)c2c(C)c(CN3CCNC3=S)sc21 [Example 169, 1-(2-Ethoxyethyl)-3-(2-methoxyethyl)-5-methyl-6-[(2-thioxoimidazolidin-1-yl)methyl]thieno[2,3-d]pyrimidine-2,4(1H,3H)-dione] | 36 nM |
| COC(C)(C)Cn1c(=O)c2c(C)c(CN3CCNC3=S)sc2n(CCC(F)(F)F)c1=O [Example 170, 3-(2-Methoxy-2-methylpropyl)-5-methyl-6-[(2-thioxoimidazolidin-1-yl)methyl]-1-(3,3,3-trifluoropropyl)thieno[2,3-d]pyrimidine-2,4(1H,3H)-dione] | 4.4 nM |
| COC(C)(C)Cn1c(=O)c2c(C)c(CN3CCNC3=S)sc2n(CCCF)c1=O [Example 171, 1-(3-Fluoropropyl)-3-(2-methoxy-2-methylpropyl)-5-methyl-6-[(2-thioxoimidazolidin-1-yl)methyl]thieno[2,3-d]pyrimidine-2,4(1H,3H)-dione] | 13 nM |

| SMILES | IC50 |
| --- | --- |
| COCCn1c(=O)n(CC(C)(C)OC)c(=O)c2c(C)c(CN3CCNC3=S)sc21 [Example 172, 1-(2-Methoxyethyl)-3-(2-methoxy-2-methylpropyl)-5-methyl-6-[(2-thioxoimidazolidin-1-yl)methyl]thieno[2,3-d]pyrimidine-2,4(1H,3H)-dione] | 7.3 nM |
| Cc1c(CN2CCN(C)C2=S)sc2c1c(=O)n(CC(F)(F)F)c(=O)n2CCCF [Example 173, 1-(3-Fluoropropyl)-5-methyl-6-[(3-methyl-2-thioxoimidazolidin-1-yl)methyl]-3-(2,2,2-trifluoroethyl)thieno[2,3-d]pyrimidine-2,4(1H,3H)-dione] | 73 nM |
| CCn1c(=O)c2c(C)c(CN3CCN(C(C)C)C3=S)sc2n(CCOC)c1=O [Example 174, 3-Ethyl-6-[(3-isopropyl-2-thioxoimidazolidin-1-yl)methyl]-1-(2-methoxyethyl)-5-methylthieno[2,3-d]pyrimidine-2,4(1H,3H)-dione] | 49 nM |
| COCCn1c(=O)n(CCc2ccccc2)c(=O)c2c(C)c(CN3CCNC3=O)sc21 [Example 176, 1-(2-Methoxyethyl)-5-methyl-6-[(2-oxoimidazolidin-1-yl)methyl]-3-(2-phenylethyl)thieno[2,3-d]pyrimidine-2,4(1H,3H)-dione] | 1.5 nM |
| CCn1c(=O)c2c(C)c(CN3CCNC3=O)sc2n(CC(F)F)c1=O [Example 177, 1-(2,2-Difluoroethyl)-3-ethyl-5-methyl-6-[(2-oxoimidazolidin-1-yl)methyl]thieno[2,3-d]pyrimidine-2,4(1H,3H)-dione] | 15 nM |
| CCn1c(=O)c2c(C)c(CN3CCNC3=O)sc2n(CCOC2CC2)c1=O [Example 178, 1-[2-(Cyclopropyloxy)ethyl]-3-ethyl-5-methyl-6-[(2-oxoimidazolidin-1-yl)methyl]thieno[2,3-d]pyrimidine-2,4(1H,3H)-dione] | 21 nM |
| Cc1c(CN2CCNC2=O)sc2c1c(=O)n(C(C)C)c(=O)n2CCC(F)(F)F [Example 181, 3-Isopropyl-5-methyl-6-[(2-oxoimidazolidin-1-yl)methyl]-1-(3,3,3-trifluoropropyl)thieno[2,3-d]pyrimidine-2,4(1H,3H)-dione] | 1.5 nM |
| Cc1c(CN2CCNC2=O)sc2c1c(=O)n(C(C)C)c(=O)n2CCF [Example 182, 1-(2-Fluoroethyl)-3-isopropyl-5-methyl-6-[(2-oxoimidazolidin-1-yl)methyl]thieno[2,3-d]pyrimidine-2,4(1H,3H)-dione] | 9 nM |
| Cc1c(CN2CCNC2=O)sc2c1c(=O)n(C(C)C)c(=O)n2CC1COC1 [Example 189, 3-Isopropyl-5-methyl-1-(oxetan-3-ylmethyl)-6-[(2-oxoimidazolidin-1-yl)methyl]thieno[2,3-d]pyrimidine-2,4(1H,3H)-dione] | 17 nM |
| Cc1c(CN2CCNC2=O)sc2c1c(=O)n(CC(C)C)c(=O)n2CC(F)F [Example 191, 1-(2,2-Difluoroethyl)-3-isobutyl-5-methyl-6-[(2-oxoimidazolidin-1-yl)methyl]thieno[2,3-d]pyrimidine-2,4(1H,3H)-dione] | 3.3 nM |
| Cc1c(CN2CCNC2=O)sc2c1c(=O)n(CC(C)C)c(=O)n2CCCF [Example 192, 1-(3-Fluoropropyl)-3-isobutyl-5-methyl-6-[(2-oxoimidazolidin-1-yl)methyl]thieno[2,3-d]pyrimidine-2,4(1H,3H)-dione] | 3.2 nM |
| CCOCCn1c(=O)n(CC(C)C)c(=O)c2c(C)c(CN3CCNC3=O)sc21 [Example 193, 1-(2-Ethoxyethyl)-3-isobutyl-5-methyl-6-[(2-oxoimidazolidin-1-yl)methyl]thieno[2,3-d]pyrimidine-2,4(1H,3H)-dione] | 25 nM |
| Cc1c(CN2CCNC2=O)sc2c1c(=O)n(CC(C)C)c(=O)n2CC1COC1 [Example 199, 3-Isobutyl-5-methyl-1-(oxetan-3-ylmethyl)-6-[(2-oxoimidazolidin-1-yl)methyl]thieno[2,3-d]pyrimidine-2,4(1H,3H)-dione] | 8.1 nM |
| Cc1c(CN2CCNC2=O)sc2c1c(=O)n(CC(C)(C)C)c(=O)n2CCC(F)(F)F [Example 200, 3-(2,2-Dimethylpropyl)-5-methyl-6-[(2-oxoimidazolidin-1-yl)methyl]-1-(3,3,3-trifluoropropyl)thieno[2,3-d]pyrimidine-2,4(1H,3H)-dione] | 2.9 nM |
| Cc1c(CN2CCNC2=O)sc2c1c(=O)n(CC(C)(C)C)c(=O)n2CCCF [Example 201, 3-(2,2-Dimethylpropyl)-1-(3-fluoropropyl)-5-methyl-6-[(2-oxoimidazolidin-1-yl)methyl]thieno[2,3-d]pyrimidine-2,4(1H,3H)-dione] | 4.4 nM |
| COCCn1c(=O)n(CC(C)(C)C)c(=O)c2c(C)c(CN3CCNC3=O)sc21 [Example 202, 3-(2,2-Dimethylpropyl)-1-(2-methoxyethyl)-5-methyl-6-[(2-oxoimidazolidin-1-yl)methyl]thieno[2,3-d]pyrimidine-2,4(1H,3H)-dione] | 7.8 nM |
